SMILES strings stand for the structures.

human NaV 1.8, sequence (Q9Y5Y9 whole entry, looked up, the tested form may be a part): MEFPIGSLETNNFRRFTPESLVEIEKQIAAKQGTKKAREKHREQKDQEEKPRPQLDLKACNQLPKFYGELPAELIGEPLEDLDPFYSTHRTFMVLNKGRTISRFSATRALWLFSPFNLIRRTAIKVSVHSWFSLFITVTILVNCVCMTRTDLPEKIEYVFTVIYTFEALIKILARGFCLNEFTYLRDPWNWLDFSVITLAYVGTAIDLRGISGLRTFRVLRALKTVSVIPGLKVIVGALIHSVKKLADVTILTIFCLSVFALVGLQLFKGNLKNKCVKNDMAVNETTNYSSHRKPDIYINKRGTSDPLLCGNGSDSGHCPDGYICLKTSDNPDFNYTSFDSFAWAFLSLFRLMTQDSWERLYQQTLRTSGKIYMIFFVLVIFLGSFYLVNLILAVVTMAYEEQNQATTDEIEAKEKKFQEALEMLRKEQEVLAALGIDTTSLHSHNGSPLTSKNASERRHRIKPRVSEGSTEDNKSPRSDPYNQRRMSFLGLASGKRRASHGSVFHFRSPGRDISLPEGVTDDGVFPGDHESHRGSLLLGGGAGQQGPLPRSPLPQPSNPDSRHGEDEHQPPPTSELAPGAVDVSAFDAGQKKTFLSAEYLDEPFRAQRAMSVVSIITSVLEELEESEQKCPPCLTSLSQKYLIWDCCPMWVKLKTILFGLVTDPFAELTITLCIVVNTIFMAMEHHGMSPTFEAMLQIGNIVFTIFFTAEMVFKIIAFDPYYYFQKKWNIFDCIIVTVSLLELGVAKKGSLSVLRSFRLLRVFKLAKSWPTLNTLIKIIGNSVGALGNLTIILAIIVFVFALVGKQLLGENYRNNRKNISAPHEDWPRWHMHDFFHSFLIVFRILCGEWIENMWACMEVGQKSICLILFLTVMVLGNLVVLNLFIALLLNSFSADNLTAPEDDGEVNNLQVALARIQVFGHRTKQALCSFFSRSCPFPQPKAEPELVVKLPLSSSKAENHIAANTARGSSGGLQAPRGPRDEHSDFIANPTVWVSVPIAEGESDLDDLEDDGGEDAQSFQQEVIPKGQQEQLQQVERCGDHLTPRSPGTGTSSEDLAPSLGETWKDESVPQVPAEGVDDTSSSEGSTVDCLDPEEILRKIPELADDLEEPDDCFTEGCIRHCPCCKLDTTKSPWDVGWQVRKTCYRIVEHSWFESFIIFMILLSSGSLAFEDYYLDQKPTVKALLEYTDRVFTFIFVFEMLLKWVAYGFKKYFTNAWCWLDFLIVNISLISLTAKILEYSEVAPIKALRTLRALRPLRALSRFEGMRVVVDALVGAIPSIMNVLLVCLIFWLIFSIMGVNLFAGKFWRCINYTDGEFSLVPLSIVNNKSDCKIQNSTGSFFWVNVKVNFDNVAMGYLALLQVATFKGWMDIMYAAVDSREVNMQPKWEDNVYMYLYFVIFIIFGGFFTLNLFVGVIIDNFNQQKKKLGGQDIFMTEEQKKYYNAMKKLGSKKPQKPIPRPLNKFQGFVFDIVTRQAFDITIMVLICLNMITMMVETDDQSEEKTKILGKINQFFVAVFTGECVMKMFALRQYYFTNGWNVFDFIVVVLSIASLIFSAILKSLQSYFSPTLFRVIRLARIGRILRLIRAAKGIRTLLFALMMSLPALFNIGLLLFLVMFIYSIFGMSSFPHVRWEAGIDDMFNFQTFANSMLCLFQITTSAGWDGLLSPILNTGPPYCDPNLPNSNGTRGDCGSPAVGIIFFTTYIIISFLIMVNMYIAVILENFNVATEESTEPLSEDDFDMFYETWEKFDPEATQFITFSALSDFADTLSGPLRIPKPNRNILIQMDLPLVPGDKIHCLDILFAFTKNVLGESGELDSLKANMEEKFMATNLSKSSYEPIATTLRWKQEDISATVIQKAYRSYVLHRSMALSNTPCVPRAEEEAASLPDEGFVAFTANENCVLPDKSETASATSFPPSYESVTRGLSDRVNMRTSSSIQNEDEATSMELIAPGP

The test concerns the target human NaV 1.8 (Homo sapiens, UniProt Q9Y5Y9). In words: E-VIPR assay for detecting and measuring NaV inhibition properties. It is filed as cell-based. Conditions: E-VIPR assay conducted in the presence of human serum; HEK cells expressing truncated human NaV 1.8; read-out: IC50. Summed up:
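HEK cells with truncated human NaV1.8 plus KIR2.1 BacMam, hexyl dye loaded 20 min, compound 30 min at room temperature, 11-point 3-fold series […], 0.625% DMSO, with or without human serum. E-VIPR biphasic stimulation at 10 Hz for 10 s; membrane-potential response read as normalized coumarin/oxonol ratio.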
For the compound `COc1c(C(F)(F)F)ccc(Oc2ccc(F)cc2F)c1C(=O)Nc1ccnc(C(N)=O)c1` [Compound 62, 4-[[6-(2,4-difluorophenoxy)-2-methoxy-3-(trifluoromethyl)benzoyl]amino]pyridine-2-carboxamide], the IC50 came out at 440 nM.
As for `COc1c(C(F)(F)F)ccc(Oc2ccccc2)c1C(=O)Nc1ccnc(C(N)=O)c1` [Compound 63, 4-[[2-methoxy-6-phenoxy-3-(trifluoromethyl)benzoyl]amino]pyridine-2-carboxamide], the 50% inhibitory concentration (IC50) worked out at 1800 nM.
In the case of `COc1c(C(F)(F)F)ccc(Oc2ccc(F)cc2C)c1C(=O)Nc1ccnc(C(N)=O)c1` [Compound 64, 4-[[6-(4-fluoro-2-methyl-phenoxy)-2-methoxy-3-(trifluoromethyl)benzoyl]amino]pyridine-2-carboxamide] it was 63 nM.
On to `COc1c(C(F)(F)F)ccc(Oc2ccc(OC(F)(F)F)c(F)c2)c1C(=O)Nc1ccnc(C(N)=O)c1` [Compound 65, 4-[[6-[3-fluoro-4-(trifluoromethoxy)phenoxy]-2-methoxy-3-(trifluoromethyl)benzoyl]amino]pyridine-2-carboxamide], for which the IC50 was 36 nM.
In the case of `COc1c(C(F)(F)F)ccc(Oc2ccc(OC(F)(F)F)cc2Cl)c1C(=O)Nc1ccnc(C(N)=O)c1` [Compound 66, 4-[[6-[2-chloro-4-(trifluoromethoxy)phenoxy]-2-methoxy-3-(trifluoromethyl)benzoyl]amino]pyridine-2-carboxamide] it was 16 nM.
The result for `COc1c(C(F)(F)F)ccc(Oc2ccc(OC(C)C)c(F)c2)c1C(=O)Nc1ccnc(C(N)=O)c1` [Compound 67, 4-[[6-(3-fluoro-4-isopropoxy-phenoxy)-2-methoxy-3-(trifluoromethyl)benzoyl]amino]pyridine-2-carboxamide] reads 110 nM; that for `COc1c(C(F)(F)F)ccc(Oc2ccc(F)c3c2OCC3)c1C(=O)Nc1ccnc(C(N)=O)c1` [Compound 68, 4-[[6-[(4-fluoro-2,3-dihydrobenzofuran-7-yl)oxy]-2-methoxy-3-(trifluoromethyl)benzoyl]amino]pyridine-2-carboxamide], 290 nM.
For the compound `COc1cc(Oc2ccc(C(F)(F)F)c(OC)c2C(=O)Nc2ccnc(C(N)=O)c2)ccc1F` [Compound 69, 4-[[6-(4-fluoro-3-methoxy-phenoxy)-2-methoxy-3-(trifluoromethyl)benzoyl]amino]pyridine-2-carboxamide], the IC50 was greater than 3000 nM.
The result for `COc1c(C(F)(F)F)ccc(Oc2ccc(C(F)(F)F)nc2)c1C(=O)Nc1ccnc(C(N)=O)c1` [Compound 70, 4-[[2-methoxy-3-(trifluoromethyl)-6-[[6-(trifluoromethyl)-3-pyridyl]oxy]benzoyl]amino]pyridine-2-carboxamide] reads greater than 3000 nM.
In the case of `CC(C)Oc1ccc(Oc2cccc(C(F)(F)F)c2C(=O)Nc2ccnc(C(N)=O)c2)c(F)c1F` [Compound 72, 4-[[2-(2,3-difluoro-4-isopropoxy-phenoxy)-6-(trifluoromethyl)benzoyl]amino]pyridine-2-carboxamide] it was 560 nM; in that of `COc1nc(Cl)ccc1Oc1cccc(C(F)(F)F)c1C(=O)Nc1ccnc(C(N)=O)c1` [Compound 73, 4-[[2-[(6-chloro-2-methoxy-3-pyridyl)oxy]-6-(trifluoromethyl)benzoyl]amino]pyridine-2-carboxamide], 1500 nM.
In the case of `CC(C)Oc1ccc(Oc2cccc(C(F)(F)F)c2C(=O)Nc2ccnc(C(N)=O)c2)cc1F` [Compound 74, 4-[[2-(3-fluoro-4-isopropoxy-phenoxy)-6-(trifluoromethyl)benzoyl]amino]pyridine-2-carboxamide] it was 1200 nM; in that of `COc1cc(F)ccc1Oc1cccc(C(F)(F)F)c1C(=O)Nc1ccnc(C(N)=O)c1` [Compound 75, 4-[[2-(4-fluoro-2-methoxy-phenoxy)-6-(trifluoromethyl)benzoyl]amino]pyridine-2-carboxamide], 1750 nM.
On to `NC(=O)c1cc(NC(=O)c2c(Oc3ccc(F)cc3F)cccc2C(F)(F)F)ccn1` [Compound 77, 4-[[2-(2,4-difluorophenoxy)-6-(trifluoromethyl)benzoyl]amino]pyridine-2-carboxamide], for which the IC50 was greater than 3000 nM.
`NC(=O)c1cc(NC(=O)c2c(Oc3ccc(F)c4c3OCC4)cccc2C(F)(F)F)ccn1` [Compound 78, 4-[[2-[(4-fluoro-2,3-dihydrobenzofuran-7-yl)oxy]-6-(trifluoromethyl)benzoyl]amino]pyridine-2-carboxamide]: the half-maximal inhibitory concentration (IC50) is greater than 3000 nM.
In the case of `NC(=O)c1cc(NC(=O)c2c(Oc3ccc(F)cc3Cl)cccc2C(F)(F)F)ccn1` [Compound 79, 4-[[2-(2-chloro-4-fluoro-phenoxy)-6-(trifluoromethyl)benzoyl]amino]pyridine-2-carboxamide] it was greater than 3000 nM; in that of `NC(=O)c1cc(NC(=O)c2c(Oc3ccc(F)c(Cl)c3)cccc2C(F)(F)F)ccn1` [Compound 80, 4-[[2-(3-chloro-4-fluoro-phenoxy)-6-(trifluoromethyl)benzoyl]amino]pyridine-2-carboxamide], greater than 3000 nM; in that of `CC(C)Oc1ccc(Oc2cccc(C(F)(F)F)c2C(=O)Nc2ccnc(C(N)=O)c2)c(F)c1` [Compound 81, 4-[[2-(2-fluoro-4-isopropoxy-phenoxy)-6-(trifluoromethyl)benzoyl]amino]pyridine-2-carboxamide], greater than 3000 nM.
`COc1cc(OC(F)(F)F)ccc1Oc1ccc(C(F)(F)F)c(OCC(C)C)c1C(=O)Nc1ccnc(C(N)=O)c1` [Compound 82, 4-[[2-isobutoxy-6-[2-methoxy-4-(trifluoromethoxy)phenoxy]-3-(trifluoromethyl)benzoyl]amino]pyridine-2-carboxamide]: the half-maximal inhibitory concentration (IC50) is greater than 3000 nM.
Take `CCOc1c(C(F)(F)F)ccc(Oc2ccc(OC(F)(F)F)cc2OC)c1C(=O)Nc1ccnc(C(N)=O)c1` [Compound 83, 4-[[2-ethoxy-6-[2-methoxy-4-(trifluoromethoxy)phenoxy]-3-(trifluoromethyl)benzoyl]amino]pyridine-2-carboxamide]: the IC50 was determined as 160 nM.
In the case of `COc1cc(OC(F)(F)F)ccc1Oc1ccc(C(F)(F)F)c(OCC2CC2)c1C(=O)Nc1ccnc(C(N)=O)c1` [Compound 84, 4-[[2-(cyclopropylmethoxy)-6-[2-methoxy-4-(trifluoromethoxy)phenoxy]-3-(trifluoromethyl)benzoyl]amino]pyridine-2-carboxamide] it was 625 nM; in that of `COc1cc(OC(F)(F)F)ccc1Oc1ccc(C(F)(F)F)c(OC2CC2)c1C(=O)Nc1ccnc(C(N)=O)c1` [Compound 85, 4-[[2-(cyclopropoxy)-6-[2-methoxy-4-(trifluoromethoxy)phenoxy]-3-(trifluoromethyl)benzoyl]amino]pyridine-2-carboxamide], 180 nM.
The result for `COc1cc(OC(F)(F)F)ccc1Oc1ccc(C(F)(F)F)c(OCC2CC2(F)F)c1C(=O)Nc1ccnc(C(N)=O)c1` (stereo not drawn) [Compound 86, 4-[[2-[(2,2-difluorocyclopropyl)methoxy]-6-[2-methoxy-4-(trifluoromethoxy)phenoxy]-3-(trifluoromethyl)benzoyl]amino]pyridine-2-carboxamide] reads 1000 nM.
In the case of `COc1cc(OC(F)(F)F)ccc1Oc1ccc(C(F)(F)F)c(NCC(C)C)c1C(=O)Nc1ccnc(C(N)=O)c1` [Compound 87, 4-[[2-(isobutylamino)-6-[2-methoxy-4-(trifluoromethoxy)phenoxy]-3-(trifluoromethyl)benzoyl]amino]pyridine-2-carboxamide] it was 1500 nM.
`[2H]C([2H])([2H])Oc1cc(OC(F)(F)F)ccc1Oc1cc(-c2ccc(C)cc2)cc(F)c1C(=O)Nc1ccnc(C(N)=O)c1` [Compound 88, 4-[[2-fluoro-4-(p-tolyl)-6-[2-(trideuteriomethoxy)-4-(trifluoromethoxy)phenoxy]benzoyl]amino]pyridine-2-carboxamide]: the IC50 was 39 nM.
For the compound `[2H]C([2H])([2H])Oc1cc(OC(F)(F)F)ccc1Oc1cc(-c2ccc(F)cc2)cc(F)c1C(=O)Nc1ccnc(C(N)=O)c1` [Compound 89, 4-[[2-fluoro-4-(4-fluorophenyl)-6-[2-(trideuteriomethoxy)-4-(trifluoromethoxy)phenoxy]benzoyl]amino]pyridine-2-carboxamide], the IC50 stood at 36 nM.
In the case of `[2H]C([2H])([2H])Oc1cc(OC(F)(F)F)ccc1Oc1cc(-c2cccnc2)cc(F)c1C(=O)Nc1ccnc(C(N)=O)c1` [Compound 90, 4-[[2-fluoro-4-(3-pyridyl)-6-[2-(trideuteriomethoxy)-4-(trifluoromethoxy)phenoxy]benzoyl]amino]pyridine-2-carboxamide], the IC50 came out at 210 nM.
In the case of `[2H]C([2H])([2H])Oc1cc(OC(F)(F)F)ccc1Oc1cc(-c2ccncc2)cc(F)c1C(=O)Nc1ccnc(C(N)=O)c1` [Compound 91, 4-[[2-fluoro-4-(4-pyridyl)-6-[2-(trideuteriomethoxy)-4-(trifluoromethoxy)phenoxy]benzoyl]amino]pyridine-2-carboxamide] it was 440 nM; in that of `[2H]C([2H])([2H])Oc1cc(OC(F)(F)F)ccc1Oc1cc(-c2ccccc2)cc(F)c1C(=O)Nc1ccnc(C(N)=O)c1` [Compound 92, 4-[[2-fluoro-4-phenyl-6-[2-(trideuteriomethoxy)-4-(trifluoromethoxy)phenoxy]benzoyl]amino]pyridine-2-carboxamide], 63 nM; in that of `[2H]C([2H])([2H])Oc1cc(OC(F)(F)F)ccc1Oc1cc(-c2ccc(C(F)(F)F)cc2)cc(F)c1C(=O)Nc1ccnc(C(N)=O)c1` [Compound 93, 4-[[2-fluoro-6-[2-(trideuteriomethoxy)-4-(trifluoromethoxy)phenoxy]-4-[4-(trifluoromethyl)phenyl]benzoyl]amino]pyridine-2-carboxamide], 13 nM.

By IC50 is commonly meant the point on the concentration scale where inhibition reaches its midpoint.

(Values after patent US12441703B2, “Carboxamides as modulators of sodium channels” (VERTEX PHARMACEUTICALS INCORPORATED, priority 2019, dated 2025).)
